We go through 114 compounds from a melting point compilation (Tetko et al.).

Each structure is given as a SMILES string.

What is called melting point is the temperature, or range, at which the solid turns liquid.

Compound `CC(C)(C)OC(=O)N1CCN(CCO)CC1` gave a melting point of 39 to 43 °C.
Compound `N#Cc1cccc(Cl)c1` showed a melting point of 41 °C.
In the case of `Cc1ccc(S(=O)(=O)OCC2COC(C)(C)O2)cc1` (centres undefined), the melting point was in the range of 29 to 31 °C.
In the case of `Cc1ccc(O)cn1` it was 169 °C.
Take `NC(=S)C(c1ccccc1)c1ccccc1`: the melting point is 143 to 146 °C.
In the case of `CCOC(=O)COc1cccc2ccccc12` it was 56.5 °C; in that of `CNC(C)Cc1ccc(O)cc1` (centres undefined), 161 °C.
Consider `Cc1nc(-c2cccc(C(=O)O)c2)cs1`, for which the melting point lay in the range of 200 to 201 °C.
In the case of `CC(=O)c1[nH]c2ccccc2c1C` it was 146 to 148 °C; in that of `CC(=O)c1ccc(N2C(=O)C=CC2=O)cc1`, 156 °C.
In turn, `Cc1ccccc1C(=O)Cc1ccccc1C(=O)O` displayed a melting point of 138 °C.
For the compound `N#Cc1c(NC(=O)CCl)sc2c1CCCC2`, the melting point was 179 to 180 °C.
For `COc1cccc(NC(N)=S)c1`, the melting point is 160 °C.
On to `CCC1CCC(=O)O1` (centres undefined), for which the melting point is -18 °C.
As for `O=C(O)c1csc(-c2ccncc2)n1`, the melting point lay within 304 to 307 °C.
Turning to `CCOC(=O)C(Cl)Cc1cc(-n2nc(C)n(C(F)F)c2=O)c(F)cc1Cl` (centres undefined), the melting point is -22.1 °C.
The compound `NC(=O)c1cccc(C(F)(F)F)c1` registered a melting point of 124 °C.
`CC1(C)C(=O)OOC1=O` displayed a melting point of 44 to 45 °C.
Compound `O=C(O)C1CCN(c2nccc(C(F)(F)F)n2)CC1` had a melting point of 140 to 142 °C.
The figure for `Cc1cccc(Cn2nc(C(C)(C)C)cc2C(=O)NN)c1` is 102 to 104 °C.
Compound `COc1ccc(C(=O)CCCCl)c(OC)c1` displayed a melting point of 58 to 60 °C.
`Brc1cc2c(cc1Br)Oc1cc(Br)c(Br)cc1O2` displayed a melting point of 334 °C.
`Cc1cc(C)c2c(=O)n(-c3ccc(Cl)cc3)c(S)nc2n1`: the melting point lay in the range of 324 to 326 °C.
In the case of `COC(=O)NNC(=O)OC` it was 129 to 131 °C; in that of `C[C@H](O)c1ccccc1Br`, 56 to 58 °C; in that of `CNC(=O)Oc1cc(C)c(C)c(C)c1`, 110 °C.
The figure for `CN(C)C=C[N+](=O)[O-]` is 103 to 105 °C; for `O=[N+]([O-])c1cc(CO)ccc1O` it is 94 to 98 °C; for `Nc1cc(Br)ccc1Cl` it is 48 to 49 °C.
With `O=C(O)c1cc(F)c(F)c(F)c1`, the melting point came out at 98 °C.
For the compound `COC(=O)c1ccc(CCl)cc1`, the melting point was found to be 40 °C.
In turn, `CCCCCCn1c(=O)c2c(ncn2C)n(C)c1=O` came in with a melting point of 82 °C.
`COC(=O)C1=C(C)NC(=S)NC1c1cccc([N+](=O)[O-])c1` (centres undefined): the melting point came to 247 °C.
For `Cc1cc(Sc2nnc(N)s2)c2ccccc2n1`, the melting point lay within 197 to 200 °C.
In the case of `CCCc1ccc(-c2ccc(C(=O)O)cc2)cc1` it was 226 °C; in that of `Cc1ccc(C(=O)C=Cc2ccc(-c3ccccc3)o2)o1`, 122 to 123 °C.
`CC(=NOCc1cccc(C(=O)O)c1)c1ccc(Cl)cc1` yielded a melting point of 154 to 157 °C.
Compound `Cc1ccc(C)c(N/N=C(/C#N)c2nc(C)c(/N=N/c3ccccc3)s2)c1` registered a melting point of 201 to 203 °C.
For `BrCc1cccc2cccnc12`, the melting point was 81 to 82 °C.
`COC(=O)c1ccc(N2CCCC2)nc1` yielded a melting point of 119 to 121 °C.
Consider `CC(C)c1ccccc1`, for which the melting point was -96 °C.
Consider `Cc1nc(-c2ccc(N)cc2)no1`, for which the melting point was in the range of 113 to 114 °C.
The figure for `Cc1cccc(/N=N/c2c(N)nn3c(C(F)(F)F)cc(C)nc23)c1` is 209 °C.
On to `O=C(N=Nc1ccccc1)NNc1ccccc1`, for which the melting point was 153 to 157 °C.
The figure for `O=C1OC(=O)c2c(I)c(I)c(I)c(I)c21` is 328 °C; for `CC1C=CCCC1` (centres undefined) it is -124 °C.
Take `Cc1cc(N)c(Cl)cc1F`: the melting point was in the range of 69 to 71 °C.
Compound `NS(=O)(=O)c1ccc(S(=O)(=O)CCCO)c(F)c1` registered a melting point of 130 °C.
In turn, `Nc1c(Br)cc([N+](=O)[O-])cc1Br` registered a melting point of 207 °C.
The compound `Cc1ncccc1N` registered a melting point of 117 °C.
`CN(C)c1ccc(/C=C(/C#N)c2nc(-c3ccc(Cl)cc3)cs2)cc1`: the melting point came out at 133 °C.
The compound `O=[N+]([O-])c1cc(Cl)c(O)c(Cl)c1` had a melting point of 127 °C.
In the case of `ON=Cc1cccnc1`, the melting point was determined as 150 °C.
`Nc1ccc([N+](=O)[O-])c(C(=O)O)c1` displayed a melting point of 234 to 242 °C.
`CC(O)CCc1ccc2c(c1)N(C(=O)c1ccccc1)C(C)CC2` (centres undefined) had a melting point of 77 °C.
For `CC(CC(=O)O)CC(C)(C)C` (centres undefined), the melting point was -70 °C.
In the case of `Nc1cc(N)c(C(=O)CI)cc1C(=O)CI` it was 165 °C; in that of `Cc1cccc(C(C)(C)C)c1O`, 31 °C; in that of `O=C1Cc2c1ccc1ccccc21`, 72 °C.
In the case of `Cc1c(C)c2c3ccccc3ccc2c2ccccc12` it was 129 °C; in that of `S=C=Nc1ccc(OCc2ccccc2)cc1`, 64 °C; in that of `NC(=O)/C(=N\Nc1c(Cl)cccc1Cl)c1nc2ccccc2s1`, 175 °C.
Turning to `COc1ccccc1-c1nnc2n1NC(c1ccccc1OC)S2` (centres undefined), the melting point came to 173 °C.
The compound `Cn1cnc2ncnc-2c1N` displayed a melting point of 300 °C.
The compound `O=C1COc2ccccc21` returned a melting point of 102 °C.
The compound `CCOC(=O)c1cc(-c2ccc(Cl)cc2)oc1C=O` gave a melting point of 188 °C.
In turn, `COc1ccc(S(=O)(=O)Cl)cc1F` gave a melting point of 79 °C.
Turning to `COc1c(C)c(C)c(OC)c2c1CC2Cl` (centres undefined), the melting point is 113 °C.
Turning to `CC(=O)OC1C(=O)C2=C(C(=O)C13CC3C)C(O)C(O)C1C(C)(C)CCCC21C` (centres undefined), the melting point lay within 180 to 182 °C.
`Cn1nc([N+](=O)[O-])c2c(=O)cc[nH]c21`: the melting point lay in the range of 222 to 224 °C.
`NC(=S)c1ccccn1` displayed a melting point of 136 °C.
Regarding `CCCCCCCCCCCCCCCCOCCOCCOCCOCCOCCOCCOCCOCCOCCOCCOCCOCCOCCOCCOCCOCCOCCOCCOCCOCCO`, the melting point fell in the range of 35.4 to 39.6 °C.
On to `COc1ccc(C(O)c2ccccc2)cc1` (centres undefined), for which the melting point came to 67 °C.
With `CCOC(=O)c1sc2sc(C(=O)OCC)c(N)c2c1N`, the melting point amounted to 200 °C.
`Cc1cc(C)c(CC(=NOCc2ccccc2)c2cc3cc(Br)ccc3o2)c(C)c1` registered a melting point of 126 to 127 °C.
In the case of `CN1CCN(Cc2ccc(CO)cc2)CC1` it was 96 to 98 °C; in that of `COc1ncnc(NS(=O)(=O)c2ccc(N)cc2)c1OC`, 192 °C.
The compound `COc1ccc(C(N)=NO)c2ccccc12` registered a melting point of 175 to 176 °C.
On to `CCc1oc2ccccc2c1C(=O)c1cc(I)c(O)c(I)c1`, for which the melting point worked out at 167 °C.
`Cc1nn(C)c2sc(C(=O)O)cc12` had a melting point of 260 °C.
Regarding `O=C(CNc1ccccc1)Nc1ccc(Br)cc1`, the melting point was determined as 154 °C.
As for `CC(C)CCNCCC(C)C`, the melting point was -44 °C.
Take `CC(=O)c1nn(-c2ccc(F)cc2)c(=N)s1`: the melting point turned out to be 198 °C.
The compound `Cc1c(O)cc2c(c1C)OC(C)(CCCC(C)CCCC(C)CCCC(C)C)CC2` (centres undefined) yielded a melting point of -3 °C.
As to `CCN(C)C(=O)COC(=O)c1ccccc1`, the melting point amounted to 20 °C.
In the case of `COC(=O)c1cccc([N+](=O)[O-])c1O` it was 131 °C; in that of `O=C(OCC(=O)N1CCCC1)c1ccccc1`, 58 °C; in that of `O=C(O)c1ccc(S)cc1`, 219 °C.
With `N#Cc1cc(F)ccc1Cl`, the melting point was 84 °C.
As for `O=C(Nc1ccc(Br)cc1Br)C(C(F)(F)F)(C(F)(F)F)C(F)(F)F`, the melting point was 228 to 230 °C.
Compound `CCC(C)CC` registered a melting point of -118 °C.
The compound `FC(Cl)C(F)(F)F` (centres undefined) registered a melting point of -199 °C.
Take `O=C1OC(=O)c2c1cccc2[N+](=O)[O-]`: the melting point was 160 to 165 °C.
The figure for `CCCCOc1ccc(-c2nnc3sc(-c4ccc(Cl)c([N+](=O)[O-])c4)nn23)cc1` is 70 °C.
As to `Oc1cc(C(F)(F)F)nc2cc(Cl)ccc12`, the melting point came out at 280 °C.
Compound `COc1ccc2c(c1)c1c3n2CCN(C)C3=NCC1` returned a melting point of 164 °C.
Compound `O=C(CBr)c1ccc(Cl)c(Cl)c1` registered a melting point of 57 °C.
`O=C(NCCc1ncc(C(F)(F)F)cc1Cl)c1ccccc1C(F)(F)F` yielded a melting point of 118 °C.
Turning to `COC(=O)c1cccc(OC)c1OC`, the melting point was in the range of 46 to 49 °C.
On to `NNC(=O)C(O)(c1ccccc1)c1ccccc1`, for which the melting point was 168 to 169 °C.
In the case of `CCOC(=O)CSc1sc(C(=O)OCC)c(N)c1C#N`, the melting point stood at 141 °C.
Compound `OC1(C#CC#CC2(O)CCCCC2)CCCCC1` showed a melting point of 175 °C.
The figure for `CC(=O)N1CCNCC1` is 32 °C; for `c1ccc(-c2nc3ccccc3nc2-c2ccc3c4c(cccc24)CC3)cc1` it is 162 °C.
In the case of `COc1ccccc1-c1nc(CCl)no1`, the melting point was in the range of 66 to 67 °C.
In the case of `O=C(O)CCSc1ccc(Br)cc1` it was 111 °C; in that of `Brc1ccc(Oc2ccc(Br)c(Br)c2)cc1`, 48 to 49 °C.
`COc1c(Cl)cccc1[N+](=O)[O-]` displayed a melting point of 58 °C.
In the case of `O=C(O)c1cc(F)c(Cl)nc1Cl`, the melting point fell in the range of 154 to 155 °C.
In turn, `c1ccc2c3c([nH]c2c1)CCCCCC3` displayed a melting point of 74 °C.
`S=c1[nH]ccn1-c1ccc(Cl)cc1` showed a melting point of 223 to 226 °C.
The compound `COC(=O)c1ccc(N2CCN(C(=O)OC(C)(C)C)CC2)cc1` showed a melting point of 166 to 167 °C.
Consider `CCC(=C(CC)c1ccc(OC)cc1)c1ccc(OC)cc1`, for which the melting point amounted to 124 °C.
`Oc1cccc(CN2CCCCC2)c1` displayed a melting point of 140 °C.
